Tests used:
Assay in all cases: Cell panel nuclear dye assay
Type in all cases: cell-based
639-V = conditions: Homo sapiens, 120 h, Bladder (ureter), 5-day incubation
Method: (§1) Cells were grown in RPMI1640, 10% FBS, 2 mM L-alanyl-L-glutamine, 1 mM Na pyruvate, or a special medium. Cells were seeded into 384-well plates and incubated in a humidified atmosphere of 5% CO2 at 37° C. Compound was added the day following cell seeding. At the same time, a time zero untreated cell plate was generated. After a 5-day incubation period, cells were fixed and stained to allow fluorescence imaging of nuclei.
(§2) Compounds were serially diluted in 2-fold steps from the highest test concentration specified, and assayed over 10 concentrations with a maximum assay concentration of 0.1% DMSO. Automated fluorescence microscopy was carried out using a Molecular Devices ImageXpress Micro XL high-content imager, and images were collected with a 4× objective. 16-bit TIFF images were acquired and analyzed with MetaXpress 5.1.0.41 software.
(§3) Cell proliferation was measured by the fluorescence intensity of an incorporated nuclear dye. The output is referred to as the relative cell count, where the measured nuclear intensity is transformed to percent of control (POC) using the following formula: […]
(§4) Cell count IC50 is the test compound concentration at 50% of maximal possible response. EC50 is the test compound concentration at the curve inflection point or half the effective response (parameter C of the fitted curve solution). GI50 is the concentration needed to reduce the observed growth by half (midway between the curve maximum and the time zero value). Activity area is an estimate of the integrated area above the curve. Activity area values range from 0-10, where a value of zero indicates no inhibition of proliferation at all concentrations, and a value of 10 indicates complete inhibition of proliferation at all concentrations. In rare instances, values <0 or >10 may be observed. In these instances, values <0 should be considered as equivalent to 0, whereas values >10 should be considered equivalent to 10.

A101D = conditions: Homo sapiens, 120 h, Melanoma, 5-day incubation
Method: as §1, §2, §3, §4

A172 = conditions: Homo sapiens, A 172, 120 h, Glioma (glioblastoma), 5-day incubation
Method: as §1, §2, §3, §4

A427 = conditions: Homo sapiens, A-427, 120 h, Lung (NSCLC), 5-day incubation
Method: as §1, §2, §3, §4

BCP-1 = conditions: 120 h, Lymphoma (B-cell), 5-day incubation
Method: as §1, §2, §3, §4

BFTC-905 = conditions: Homo sapiens, 120 h, Bladder, 5-day incubation
Method: as §1, §2, §3, §4

C32TG = conditions: 120 h, Melanoma, 5-day incubation
Method: as §1, §2, §3, §4

CHP-212 = conditions: Homo sapiens, 120 h, Neuroblastoma, 5-day incubation
Method: as §1, §2, §3, §4

CRO-AP2 = conditions: Homo sapiens, 120 h, Lymphoma, 5-day incubation
Method: as §1, §2, §3, §4

DMS53 = conditions: Homo sapiens, DMS-53, 120 h, Lung (SCLC), 5-day incubation
Method: as §1, §2, §3, §4

HOS = conditions: Homo sapiens, 120 h, Osteosarcoma, 5-day incubation
Method: as §1, §2, §3, §4

KHOS-240S = conditions: 120 h, Osteosarcoma, 5-day incubation
Method: as §1, §2, §3, §4

M059J = conditions: Homo sapiens, 120 h, Glioma (glioblastoma), 5-day incubation
Method: as §1, §2, §3, §4

NCI-H441 = conditions: Homo sapiens, 120 h, Lung (NSCLC), 5-day incubation
Method: as §1, §2, §3, §4

NCI-H446 = conditions: Homo sapiens, 120 h, Lung (SCLC), 5-day incubation
Method: as §1, §2, §3, §4

NCI-H661 = conditions: Homo sapiens, 120 h, Lung (NSCLC), 5-day incubation
Method: as §1, §2, §3, §4

NCI-H747 = conditions: Homo sapiens, 120 h, Colon (cecum), 5-day incubation
Method: as §1, §2, §3, §4

SCC-4 = conditions: Homo sapiens, 120 h, Head & neck (squamous cell carcinoma, tongue), 5-day incubation
Method: as §1, §2, §3, §4

SHP-77 = conditions: Homo sapiens, SHP77, 120 h, Lung (SCLC), 5-day incubation
Method: as §1, §2, §3, §4

SJRH30 = conditions: Homo sapiens, 120 h, Sarcoma (rhabdomyosarcoma), 5-day incubation
Method: as §1, §2, §3, §4

SNB-19 = conditions: Homo sapiens, 120 h, Glioma (astrocytoma), 5-day incubation
Method: as §1, §2, §3, §4

SW1088 = conditions: Homo sapiens, 120 h, Glioma (astrocytoma), 5-day incubation
Method: as §1, §2, §3, §4

T24 = conditions: Homo sapiens, T-24, 120 h, Bladder, 5-day incubation
Method: as §1, §2, §3, §4

VA-ES-BJ = conditions: 120 h, Sarcoma (epitheloid), 5-day incubation
Method: as §1, §2, §3, §4

WM-266-4 = conditions: Homo sapiens, 120 h, Melanoma, 5-day incubation
Method: as §1, §2, §3, §4

With `NC(=O)c1ncn2c(=O)n(CCOC(F)(F)F)nnc12` [Compound I-1, 4-Oxo-3-(2-(trifluoromethoxy)ethyl)-3,4-dihydroimidazo[5,1-d][1,2,3,5]tetrazine-8-carboxamide] as the molecule, how does the EC50 (639-V) read?
Its EC50 is no more than 30 µM.

What about the IC50 (639-V) of the same molecule?
Its IC50 is no more than 30 µM.

And the EC50 (A101D)?
The EC50 was no more than 30 µM.

What about the IC50 (A101D) of the same molecule?
Its IC50 is no more than 30 µM.

And the EC50 (A172)?
Its EC50 is 30 to 70 µM.

What about the IC50 (A172) of the same molecule?
Its IC50 is 70 to 150 µM.

And the EC50 (A427)?
Its EC50 is 30 to 70 µM.

What about the IC50 (A427) of the same molecule?
The IC50 was 30 to 70 µM.

What about the EC50 (BCP-1) of the same molecule?
The EC50 was no more than 30 µM.

What about the IC50 (BCP-1) of the same molecule?
The IC50 was no more than 30 µM.

And the EC50 (BFTC-905)?
Its EC50 is 30 to 70 µM.

And the IC50 (BFTC-905)?
Its IC50 is 30 to 70 µM.

And the EC50 (C32TG)?
The EC50 was no more than 30 µM.

And the IC50 (C32TG)?
The IC50 was no more than 30 µM.

What about the EC50 (CHP-212) of the same molecule?
Its EC50 is no more than 30 µM.

And the IC50 (CHP-212)?
The IC50 was no more than 30 µM.

What about the EC50 (CRO-AP2) of the same molecule?
The EC50 was no more than 30 µM.

And the IC50 (CRO-AP2)?
The IC50 was no more than 30 µM.

And the EC50 (DMS53)?
The EC50 was no more than 30 µM.

And the IC50 (DMS53)?
Its IC50 is no more than 30 µM.

What about the EC50 (HOS) of the same molecule?
The EC50 was 30 to 70 µM.

What about the IC50 (HOS) of the same molecule?
The IC50 was 30 to 70 µM.

And the EC50 (KHOS-240S)?
The EC50 was greater than 150 µM.

What about the IC50 (KHOS-240S) of the same molecule?
Its IC50 is greater than 150 µM.

And the EC50 (M059J)?
Its EC50 is 30 to 70 µM.

And the IC50 (M059J)?
Its IC50 is 30 to 70 µM.

And the EC50 (NCI-H441)?
Its EC50 is greater than 150 µM.

And the IC50 (NCI-H441)?
Its IC50 is greater than 150 µM.

And the EC50 (NCI-H446)?
The EC50 was 30 to 70 µM.

And the IC50 (NCI-H446)?
Its IC50 is 30 to 70 µM.

What about the EC50 (NCI-H661) of the same molecule?
Its EC50 is no more than 30 µM.

And the IC50 (NCI-H661)?
The IC50 was greater than 150 µM.

And the EC50 (NCI-H747)?
Its EC50 is greater than 150 µM.

What about the IC50 (NCI-H747) of the same molecule?
Its IC50 is greater than 150 µM.

What about the EC50 (SCC-4) of the same molecule?
Its EC50 is no more than 30 µM.

What about the IC50 (SCC-4) of the same molecule?
The IC50 was greater than 150 µM.

And the EC50 (SHP-77)?
Its EC50 is 30 to 70 µM.

What about the IC50 (SHP-77) of the same molecule?
The IC50 was 70 to 150 µM.

What about the EC50 (SJRH30) of the same molecule?
The EC50 was no more than 30 µM.

What about the IC50 (SJRH30) of the same molecule?
Its IC50 is no more than 30 µM.

What about the EC50 (SNB-19) of the same molecule?
The EC50 was 30 to 70 µM.

And the IC50 (SNB-19)?
Its IC50 is 30 to 70 µM.

And the EC50 (SW1088)?
Its EC50 is 70 to 150 µM.

And the IC50 (SW1088)?
Its IC50 is 70 to 150 µM.

What about the EC50 (T24) of the same molecule?
The EC50 was 30 to 70 µM.

And the IC50 (T24)?
Its IC50 is greater than 150 µM.

And the EC50 (VA-ES-BJ)?
Its EC50 is 70 to 150 µM.

And the IC50 (VA-ES-BJ)?
Its IC50 is greater than 150 µM.

And the EC50 (WM-266-4)?
The EC50 was 30 to 70 µM.

And the IC50 (WM-266-4)?
Its IC50 is 30 to 70 µM.

Source: patent US20250066371A1, “FLUOROALKOXYALKYLENE-DIHYDROIMIDAZO[5,1-D]TETRAZINONE COMPOUNDS AND RELATED COMPOUNDS AND THEIR USE IN TREATING MEDICAL CONDITIONS” (priority 2023, published 2025)
